Data on seven compounds can be found in paper PMC3828334, “Tumor Cell Death Mediated by Peptides That Recognize Branched Intermediates of DNA Replication and Repair” (PLoS ONE, 2013).

The subject of data set [1] is PC3 cells. The settings on record: for cell survival: MTT. As for the experimental part: 20,000 PC3 cells were plated overnight in 96 well plates (Costar) at a concentration of 200,000 cells/ml. They are treated with the peptides, doxorubicin, docetaxel alone, or in combination for different time period incubation and the cell viability was determined by MTT assay as described. The percentage survival of the cells with different treatments was calculated using DMSO-vehicle control-treated cells as the standard.

The subject of another data set is Chk2 in PC3 cells. As to the kind of experiment: Phospho-Chk2 by flow cytometry. The format is cell-based. The settings on record: PC3, 1 µM doxorubicin on its own, 48 h. As for the experimental part: They were subsequently treated with either 50-200 μM […] or 50-100 μM […] or 0.5-1 μM doxorubicin or combination treatment for 0, 12, 24, 36 and 48 h. […] Samples were analyzed using a Becton Dickinson FACS Canto flow cytometer at a forward scatter voltage of 25 V, side-scatter voltage of 400 V, and FITC channel at a voltage of 400 V.
On the technique in general: A flow cytometer gives signals particle by particle.

In the next data set the test system is HeLa cells. The data set is described as follows: TUNEL assay, HeLa, with z-VAD-fmk or z-FA-fmk. The format is cell-based. As for the experimental part: 600,000 PC3 cells or 500,000 HeLa cells were plated in 60-mm dishes or 6-well plates respectively to allow them to attach overnight at 37°C with 5% CO2. PC3 cells were subsequently treated with appropriate treatments for 24, 36 and 48 h while HeLa cells were treated with 1 µl of either the caspase inhibitor z-VAD-fmk or z-FA-fmk (both from Biovision), containing appropriate treatments, for 24 h. The cells were fixed with 4% paraformaldehyde for 30 min and permeabilized with 0.1% Triton X-100 in 0.1% sodium citrate buffer for 3 mins. Labeled dUTP were added along with the terminal deoxynucleotidyl transferase dUTP nick end labeling (TUNEL) (TUNEL kit from Roche) as described in the kit. Samples were analyzed using a Becton Dickinson FACS Canto flow cytometer as specified above.

The test system of data set [2] is Htog1 cells (variant of HeLa cells). The data set is described as follows: Cytochrome C release / TMRE assay for apoptosis. The format is cell-based. Particulars: 150 µM etoposide, 24 h, positive control. As for the experimental part:
200,000 Htog1 cells (variant of HeLa cells, a generous gift from Drs. Terrence Frey and Maria Guo) were seeded on cover slips mounted on 35 mm microwell petri dishes (Mattek Corp, Ashland, MA) with DMEM supplemented with 10% FBS and allowed to attach overnight at 37°C in 5% CO2. The media was replaced with 1 ml of the appropriate treatment and incubated for 24 h. After 23 h of treatment, 50 µM tetramethyl rhodamine ethyl ester perchlorate (TMRE) solution was added to each well (final concentration 50 nM) and incubated for the remaining hour. Cytochrome C release and loss of TMRE staining were determined in Z-series images acquired using a Leica TCS SP2 inverted confocal microscope. GFP was excited using 488 nm wavelength from an Ar/Kr laser attenuated to 33%, and the emitted fluorescence detected at 497–553 nm. TMRE fluorescence was excited using a 543 nm wavelength from an Ar/Kr laser attenuated to 35%, and the emitted fluorescence detected at 555–620 nm. Each cell was analyzed for release of GFP (GFP channel), loss of mitochondrial membrane potential (TMRE loss) or morphological abnormalities associated with apoptosis, and the % cells positive for each hallmark was calculated for the various treatments.

For another data set, the system named is LnCAP cells. The format is cell-based. Particulars: 48 h.
Another data set has as its system DuPro-1 cells. Format: cell-based. The settings on record: 48 h.
Data set [3] deals with PC3 cells. As to the kind of experiment: HPLC determination of intracellular and extracellular peptide concentration. Format: in vitro ADME. On the procedure:
500,000 HeLa or 400,000 PC3 cells were plated in each well of the 6-well dishes (Costar) and allowed to attach overnight at 37°C with 5% CO2. The cells were treated with d-wrwycr or d-wrwyrggrywrw for 24 or 48 h respectively. For PC3 cells media along with the dodecamer treatments were collected for a separate run in HPLC. PC3 or HeLa cells were lysed using a lysis buffer containing 0.71% NP40, 71 mM Tris (pH 7.5), 0.71 mM EDTA and 212 mM NaCl on ice for 5–10 mins. The lysates were centrifuged at 13,000 g for 7 mins to clear cellular debris. The samples were analyzed by HPLC (Beckman Coulter System Gold BioEssential 126/168) using a Phenomonex Jupiter 4 micron Proteo 90A C18 hydrophobic column to detect the peptides within the cells. […] The intracellular concentration was calculated by taking into account the area under the peptide peaks, using the integration function of 32 Karat software (Beckman Coulter, Fullerton, California), and comparing them to the standard curve of the peptide. […] The extracellular concentration of wrwyrggrywrw was calculated by running the media similarly in HPLC and comparing them to the standard curve of wrwyrggrywrw.
To investigate whether peptide wrwycr or wrwyrggrywrw accumulated within cells, the concentration of the unlabeled and unmodified peptides was directly determined using an HPLC-based method. […]

For data set [4], the system named is GRP78 promoter in HeLa cells. The data set is described as follows: Luciferase reporter assay for ER stress. Format: cell-based. The settings on record: positive control. As for the experimental part: HeLa cells were transfected with either either 15 µg of plasmid DJT208, carrying the GRP78 promoter (pGRP78) driving the ER-stress response elements ERSE 1, ERSE 2 and ERSE 3 upstream of the luciferase gene, or 15 µg of the plasmid GL2P, carrying the luciferase gene driven by the SV40 promoter (pSV40). All cells were also co-transfected with 10 µg of the PB1 plasmid, carrying the β-galactosidase reporter transcribed by the SV40 promoter, as a transfection control. [The plasmids were generous gifts from Dr. Peter Belmont from Christopher Glembotski's Lab in SDSU]. After 24 h the cells were treated with increasing concentrations of wrwycr (100, 150 and 200 µM) for 24 h and the luciferase activity was measured using an OptocompII Luminometer. Tunicamycin (TM), a known inducer of ER stress, was used as a positive control for the experiment ER stress was calculated as the fold increase of luciferase gene expression from the GRP78 promoter over that from the SV40 promoter of pGL2P for the different concentrations of the peptide over DMSO, which is the solvent for the peptide, or over the media in the case of TM.
(In general: In a reporter assay the amount or activity of a reporter protein is the signal.)

Like-named read-outs stand apart in the source and are kept apart here. Non-standard residues stand in square brackets, D forms with d. Residues, ends and D or L forms follow the SMILES beside them.

Consider `CC(=O)O[C@@]12CO[C@@H]1C[C@H](O)[C@@]1(C)C(=O)[C@H](O)C3=C(C)[C@@H](OC(=O)[C@H](O)[C@@H](NC(=O)OC(C)(C)C)c4ccccc4)C[C@@](O)([C@@H](OC(=O)c4ccccc4)[C@H]21)C3(C)C` [docetaxel], for which the cell survival with PC3 cells [1] (PC3, 10 nM docetaxel, 48 h) was found to be 90%; with PC3 cells [1] (PC3, 50 nM docetaxel, 48 h), 80%.

With `COc1cccc2c1C(=O)c1c(O)c3c(c(O)c1C2=O)C[C@@](O)(C(=O)CO)C[C@@H]3O[C@H]1C[C@H](N)[C@H](O)[C@H](C)O1` [doxorubicin], the cell survival with PC3 cells [1] (PC3, 1 µM doxorubicin alone, time course, evident at 36 h (Figure 9B)) is 80%; with PC3 cells [1] (PC3, 2.5 µM doxorubicin alone, 48 h), 73%. In addition, the “cellular population with activated Chk2” value in the data set on Chk2 in PC3 cells is 50%.

Compound `COc1cc([C@@H]2c3cc4c(cc3[C@@H](O[C@@H]3O[C@@H]5CO[C@@H](C)O[C@H]5[C@H](O)[C@H]3O)[C@H]3COC(=O)[C@H]23)OCO4)cc(OC)c1O` [etoposide, reference compound] showed a TUNEL-positive cells in the data set on HeLa cells (1.3 µM etoposide alone) of less than 2%. Moreover, the “cytochrome C release and mitochondrial membrane potential” value in data set [2] is “loss of mitochondrial membrane potential and release of cytC”.

Compound `NC(=O)NO` [hydroxyurea] registered a TUNEL-positive cells in the data set with HeLa cells (10 mM hydroxyurea alone) of less than 2%.

Turning to `OC[C@@H](O)[C@@H](O)[C@H](O)[C@@H](O)CO` [sorbitol], the TUNEL-positive cells in the data set on HeLa cells (400 mM sorbitol with mock inhibitor z-FA-fmk) was roughly 80%; in the data set on HeLa cells (400 mM sorbitol with z-VAD-fmk inhibitor) it was less than 10%.

What is called IC50 is the point on the concentration scale where inhibition reaches its midpoint. In the case of `N=C(N)NCCC[C@@H](NC(=O)CNC(=O)CNC(=O)[C@@H](CCCNC(=N)N)NC(=O)[C@@H](Cc1ccc(O)cc1)NC(=O)[C@@H](Cc1c[nH]c2ccccc12)NC(=O)[C@@H](CCCNC(=N)N)NC(=O)[C@H](N)Cc1c[nH]c2ccccc12)C(=O)N[C@H](Cc1ccc(O)cc1)C(=O)N[C@H](Cc1c[nH]c2ccccc12)C(=O)N[C@H](CCCNC(=N)N)C(=O)N[C@H](Cc1c[nH]c2ccccc12)C(N)=O` [wrwyrggrywrw] (H-[dW][dR][dW][dY][dR]GG[dR][dY][dW][dR][dW]-NH2), the IC50 in the data set on PC3 cells [1] (48 h) amounted to 50 µM; in the data set with LnCAP cells, 25 µM; with DuPro-1 cells, 25 µM. In addition, the intracellular concentration in the data set with PC3 cells [3] (25 µM input dose, PC3 cells, 48 h, cell lysate soluble fraction, HPLC C18 against standard curve, cell volume 1.6–2.4 pl) is on record as roughly 1 mM. Moreover, the “peptide in the media less than input” value with PC3 cells [3] (media with 10% FBS after treatment of PC3 cells, several input concentrations, HPLC (Figure 2Aii)) is given as 5–10%.

For the compound Tunicamycin, in data set [4] (concentration not given), the “pGRP78 Units” value stood at 425255±16205 and the “pSV40 Units” value is reported as 4606±362.1. Further, in data set [4] (over the media), the pGRP78/pSV40 is 20.0±1.36, the “pGRP78 Fold change” value is on record as 7.9±0.09 and the “pSV40 Fold change” value is given as 0.4±0.02.
